Experimental data published in patent US6334995B1, “Process for the preparation of technetium-99m diethylene triamine penta-acetic acid diester” (Council of Scientific & Industrial Research, priority 1998, dated 2002).
Like-named read-outs stand apart in the source and are kept apart here.

Experiments:
[1] = cited from earlier work; for extraction efficiency: background statement; for Renal extraction: background comparison of MAG3 with iodine-131 orthoiodo-hippurate
[2] = Renal plasma clearance in rats, single injection method; assay type: in vivo; conditions: plasma samples at 20 and 30 min, single compartment model
Method: (§1) Renal plasma clearance of technetium-99m diethylene triamine pentaacetic acid dimethyl ester was studied in rats by single injection method. Two plasma samples were collected at 20 and 30 min time point. The clearance was calculated using a single compartment model. Iodine-131 orthoiodo-hippurate was coinjected as standard. This experiment was also performed with technetium-99m mercaptoacetylglycylglycylglycine. […] The corresponding values in dog (10-12 kg) for technetiumn-99m diethylene triamine pentaacetic acid dimethyl ester and technetium-99m mercaptoacetylglycylglycylglycine along with coinjected hippurate were 72, 80 and 157 ml/min. These values are much higher than technetium-99m diethylene triamine pentaacetic acid in rats (0.82 ml/min 100 g) or dogs (43 ml/min).

[3] = assay type: in vivo; conditions: dog (10-12 kg)
Method: as §1

[4] = background statement; cited from earlier work
[5] = Comparative biodistribution in rats; assay type: in vivo; conditions: for Blood, percent dose per organ / Intestine, percent dose per organ / Kidney, percent dose per organ / Liver, percent dose per organ / Urine, percent dose per organ: rat; for hepatobiliary accumulation: conclusion from biodistribution in rats or mice or scintigraphic experiments on dog
Method: (§2) Biological evaluation of technetium-99m diethylenie triamine pentaacetic acid diester by comparative biodistribution with iodine-131 orthoiodo-hippurate and technetium-99m mercaptoacetylglycylglycylglyciine.
(§3) The comparative biodistribution experiment was undertaken in mice and rats. In mice either technetium-99m diethylene triamine pentaacetic acid diester or technetium-99m mercaptoacetylglycylglycylglycine were injected via the tail vein along with iodine-131 orthoiodo-hippurate. Rats were anaesthetised with urethane and the above radiochemicals were injected via the femoral vein. After predetermined time interval the animals were sacrificed and the organs were taken in the counting vial. Considerable care were exercised not to loose any urine during the process.

[6] = Comparative biodistribution in mice; assay type: in vivo
Method: as §2, §3

[7] = background statement; cited from earlier work; remark: listed apart in the source

O=C(O)CNC(=O)c1ccccc1I [Orthoiodo-hippurate]
extraction efficiency [1]: 87%

O=C(O)CNC(=O)c1ccccc1[131I] [compound 1, Iodine-131 orthoiodo-hippurate]
Renal extraction [1]: 79% | Renal plasma clearance [2]: 2.68 ml/min/100 g | Renal plasma clearance [3]: 157 mL/min | protein binding [4]: 32% | Blood, percent dose per organ ([5]; 10 min post-injection): 5.61 ± 0.87 percent dose per organ | Intestine, percent dose per organ ([5]; 10 min post-injection): 2.12 ± 0.41 percent dose per organ | Kidney, percent dose per organ ([5]; 10 min post-injection): 3.72 ± 0.77 percent dose per organ | Liver, percent dose per organ ([5]; 10 min post-injection): 3.29 ± 1.14 percent dose per organ | Urine, percent dose per organ ([5]; 10 min post-injection): 48.92 ± 1.54 percent dose per organ | Blood, percent dose per organ ([5]; 30 min post-injection): 1.47 ± 0.28 percent dose per organ | Intestine, percent dose per organ ([5]; 30 min post-injection): 1.92 ± 0.39 percent dose per organ | Kidney, percent dose per organ ([5]; 30 min post-injection): 0.94 ± 0.20 percent dose per organ | Liver, percent dose per organ ([5]; 30 min post-injection): 0.80 ± 0.12 percent dose per organ | Urine, percent dose per organ ([5]; 30 min post-injection): 79.80 percent dose per organ | Blood, percent dose per organ ([6]; 10 min post-injection): 3.00 ± 1.29 percent dose per organ | Intestine, percent dose per organ ([6]; 10 min post-injection): 2.16 ± 0.28 percent dose per organ | Kidney, percent dose per organ ([6]; 10 min post-injection): 2.57 ± 1.05 percent dose per organ | Liver, percent dose per organ ([6]; 10 min post-injection): 2.47 ± 0.26 percent dose per organ | Urine, percent dose per organ ([6]; 10 min post-injection): 64.85 ± 2.74 percent dose per organ | Blood, percent dose per organ ([6]; 30 min post-injection): 1.41 ± 0.72 percent dose per organ | Intestine, percent dose per organ ([6]; 30 min post-injection): 1.21 ± 0.47 percent dose per organ | Kidney, percent dose per organ ([6]; 30 min post-injection): 0.59 ± 0.30 percent dose per organ | Liver, percent dose per organ ([6]; 30 min post-injection): 0.90 ± 0.14 percent dose per organ | Urine, percent dose per organ ([6]; 30 min post-injection): 80.38 percent dose per organ

technetium-99m mercaptoacetylglycylglycylglycine [compound 3]
Renal extraction [1]: 53% | Renal plasma clearance [2]: 1.45 ml/min/100 g | Renal plasma clearance [3]: 80 mL/min | protein binding [4]: 77% | accumulation in hepatobiliary system [7]: Unwanted accumulation in hepatobiliary system is observed | hepatobiliary accumulation [5]: appreciable amount | Blood, percent dose per organ ([5]; 10 min post-injection): 4.22 ± 0.40 percent dose per organ | Intestine, percent dose per organ ([5]; 10 min post-injection): 4.94 ± 1.39 percent dose per organ | Kidney, percent dose per organ ([5]; 10 min post-injection): 8.51 ± 1.54 percent dose per organ | Liver, percent dose per organ ([5]; 10 min post-injection): 3.37 ± 0.76 percent dose per organ | Urine, percent dose per organ ([5]; 10 min post-injection): 33.15 ± 6.30 percent dose per organ | Blood, percent dose per organ ([5]; 30 min post-injection): 2.31 ± 0.24 percent dose per organ | Intestine, percent dose per organ ([5]; 30 min post-injection): 10.12 ± 0.88 percent dose per organ | Kidney, percent dose per organ ([5]; 30 min post-injection): 2.99 ± 0.96 percent dose per organ | Liver, percent dose per organ ([5]; 30 min post-injection): 4.48 ± 1.48 percent dose per organ | Urine, percent dose per organ ([5]; 30 min post-injection): 63.50 percent dose per organ | Blood, percent dose per organ ([6]; 10 min post-injection): 6.60 ± 2.37 percent dose per organ | Intestine, percent dose per organ ([6]; 10 min post-injection): 3.31 ± 0.40 percent dose per organ | Kidney, percent dose per organ ([6]; 10 min post-injection): 4.32 ± 0.15 percent dose per organ | Liver, percent dose per organ ([6]; 10 min post-injection): 7.07 ± 0.82 percent dose per organ | Urine, percent dose per organ ([6]; 10 min post-injection): 48.34 ± 2.36 percent dose per organ | Blood, percent dose per organ ([6]; 30 min post-injection): 1.23 ± 0.26 percent dose per organ | Intestine, percent dose per organ ([6]; 30 min post-injection): 5.82 ± 0.60 percent dose per organ | Kidney, percent dose per organ ([6]; 30 min post-injection): 1.12 ± 0.25 percent dose per organ | Liver, percent dose per organ ([6]; 30 min post-injection): 4.36 ± 0.43 percent dose per organ | Urine, percent dose per organ ([6]; 30 min post-injection): 70.99 percent dose per organ

technetium-99m diethylene triamine pentaacetic acid dimethyl ester [compound 2]
Renal plasma clearance [2]: 1.39 ml/min/100 g | Renal plasma clearance [3]: 72 mL/min | hepatobiliary accumulation [5]: no hepatobiliary accumulation | Blood, percent dose per organ ([5]; 10 min post-injection): 8.26 ± 0.75 percent dose per organ | Intestine, percent dose per organ ([5]; 10 min post-injection): 2.19 ± 0.41 percent dose per organ | Kidney, percent dose per organ ([5]; 10 min post-injection): 3.21 ± 0.29 percent dose per organ | Liver, percent dose per organ ([5]; 10 min post-injection): 2.14 ± 0.41 percent dose per organ | Urine, percent dose per organ ([5]; 10 min post-injection): 30.94 ± 3.40 percent dose per organ | Blood, percent dose per organ ([5]; 30 min post-injection): 3.49 ± 0.36 percent dose per organ | Intestine, percent dose per organ ([5]; 30 min post-injection): 1.53 ± 0.10 percent dose per organ | Kidney, percent dose per organ ([5]; 30 min post-injection): 1.47 ± 0.41 percent dose per organ | Liver, percent dose per organ ([5]; 30 min post-injection): 0.91 ± 0.03 percent dose per organ | Urine, percent dose per organ ([5]; 30 min post-injection): 64.20 percent dose per organ | Blood, percent dose per organ ([6]; 10 min post-injection): 7.27 ± 2.41 percent dose per organ | Intestine, percent dose per organ ([6]; 10 min post-injection): 3.40 ± 0.25 percent dose per organ | Kidney, percent dose per organ ([6]; 10 min post-injection): 3.36 ± 0.98 percent dose per organ | Liver, percent dose per organ ([6]; 10 min post-injection): 1.65 ± 0.11 percent dose per organ | Urine, percent dose per organ ([6]; 10 min post-injection): 46.39 ± 3.67 percent dose per organ | Blood, percent dose per organ ([6]; 30 min post-injection): 1.51 ± 0.53 percent dose per organ | Intestine, percent dose per organ ([6]; 30 min post-injection): 1.67 ± 0.91 percent dose per organ | Kidney, percent dose per organ ([6]; 30 min post-injection): 1.28 ± 0.52 percent dose per organ | Liver, percent dose per organ ([6]; 30 min post-injection): 1.22 ± 0.25 percent dose per organ | Urine, percent dose per organ ([6]; 30 min post-injection): 73.23 percent dose per organ

Technetium-99m diethylene triamine pentaacetic acid [compound 4]
extraction efficiency [1]: 20% | Renal plasma clearance [2]: 0.82 ml/min/100 g | Renal plasma clearance [3]: 43 mL/min | Blood, percent dose per organ ([5]; 10 min post-injection): 19.06 ± 2.37 percent dose per organ | Intestine, percent dose per organ ([5]; 10 min post-injection): 3.65 ± 2.05 percent dose per organ | Kidney, percent dose per organ ([5]; 10 min post-injection): 5.13 ± 1.00 percent dose per organ | Liver, percent dose per organ ([5]; 10 min post-injection): 4.91 ± 1.18 percent dose per organ | Urine, percent dose per organ ([5]; 10 min post-injection): 21.23 ± 1.61 percent dose per organ | Blood, percent dose per organ ([5]; 30 min post-injection): 7.08 ± 1.50 percent dose per organ | Intestine, percent dose per organ ([5]; 30 min post-injection): 6.43 ± 1.42 percent dose per organ | Kidney, percent dose per organ ([5]; 30 min post-injection): 2.78 ± 1.00 percent dose per organ | Liver, percent dose per organ ([5]; 30 min post-injection): 3.30 ± 0.79 percent dose per organ | Urine, percent dose per organ ([5]; 30 min post-injection): 43.32 percent dose per organ | Blood, percent dose per organ ([6]; 10 min post-injection): 14.66 ± 3.33 percent dose per organ | Intestine, percent dose per organ ([6]; 10 min post-injection): 2.71 ± 0.20 percent dose per organ | Kidney, percent dose per organ ([6]; 10 min post-injection): 2.57 ± 0.30 percent dose per organ | Liver, percent dose per organ ([6]; 10 min post-injection): 2.57 ± 0.47 percent dose per organ | Urine, percent dose per organ ([6]; 10 min post-injection): 35.48 ± 2.92 percent dose per organ | Blood, percent dose per organ ([6]; 30 min post-injection): 5.55 ± 1.22 percent dose per organ | Intestine, percent dose per organ ([6]; 30 min post-injection): 3.12 ± 0.85 percent dose per organ | Kidney, percent dose per organ ([6]; 30 min post-injection): 1.08 ± 0.03 percent dose per organ | Liver, percent dose per organ ([6]; 30 min post-injection): 1.02 ± 0.30 percent dose per organ | Urine, percent dose per organ ([6]; 30 min post-injection): 60.15 percent dose per organ
